Laboratory results reported in PubChem BioAssay AID2060611 (Molecular Pharmacology Branch, DTP, NCI, 2025).

System: 628569-122-R-J1-PDC complex spheroid viability
Assay: Anticancer human tumor 628569-122-R-J1-PDC patient-derived head and neck squamous carcinoma cell line growth inhibition [CLK]
Conditions: for IC50: curve of first compound; for viability, T/C: stronger effect = lower value
How it was run: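 Multi-cell-type spheroids combined patient-derived tumor cells with HUVEC endothelial cells and human mesenchymal stem cells. Paired agents were dosed in half-log steps down from about clinical Cmax, or from 10 microM where Cmax was unknown.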

[1] = second compound 0.0316 µM, first compound 0.0316 µM
[2] = second compound 0.0316 µM, first compound 0.1 µM
[3] = second compound 0.0316 µM, first compound 0.316 µM
[4] = second compound 0.0316 µM, first compound 1 µM
[5] = second compound 0.0316 µM, first compound 3.16 µM
[6] = second compound 0.0316 µM, first compound 10 µM
[7] = second compound 0.1 µM, first compound 0.0316 µM
[8] = second compound 0.1 µM, first compound 0.1 µM
[9] = second compound 0.1 µM, first compound 0.316 µM
[10] = second compound 0.1 µM, first compound 1 µM
[11] = second compound 0.1 µM, first compound 3.16 µM
[12] = second compound 0.1 µM, first compound 10 µM
[13] = second compound 0.316 µM, first compound 0.0316 µM
[14] = second compound 0.316 µM, first compound 0.1 µM
[15] = second compound 0.316 µM, first compound 0.316 µM
[16] = second compound 0.316 µM, first compound 1 µM
[17] = second compound 0.316 µM, first compound 3.16 µM
[18] = second compound 0.316 µM, first compound 10 µM
[19] = second compound 1 µM, first compound 0.0316 µM
[20] = second compound 1 µM, first compound 0.1 µM
[21] = second compound 1 µM, first compound 0.316 µM
[22] = second compound 1 µM, first compound 1 µM
[23] = second compound 1 µM, first compound 3.16 µM
[24] = second compound 1 µM, first compound 10 µM
[25] = second compound 3.16 µM, first compound 0.0316 µM
[26] = second compound 3.16 µM, first compound 0.1 µM
[27] = second compound 3.16 µM, first compound 0.316 µM
[28] = second compound 3.16 µM, first compound 1 µM
[29] = second compound 3.16 µM, first compound 3.16 µM
[30] = second compound 3.16 µM, first compound 10 µM
[31] = second compound 10 µM, first compound 0.0316 µM
[32] = second compound 10 µM, first compound 0.1 µM
[33] = second compound 10 µM, first compound 0.316 µM
[34] = second compound 10 µM, first compound 1 µM
[35] = second compound 10 µM, first compound 3.16 µM
[36] = second compound 10 µM, first compound 10 µM
[37] = second compound 0.0316 µM, first compound 0.00316 µM
[38] = second compound 0.0316 µM, first compound 0.01 µM
[39] = second compound 0.1 µM, first compound 0.00316 µM
[40] = second compound 0.1 µM, first compound 0.01 µM
[41] = second compound 0.316 µM, first compound 0.00316 µM
[42] = second compound 0.316 µM, first compound 0.01 µM
[43] = second compound 1 µM, first compound 0.00316 µM
[44] = second compound 1 µM, first compound 0.01 µM
[45] = second compound 3.16 µM, first compound 0.00316 µM
[46] = second compound 3.16 µM, first compound 0.01 µM
[47] = second compound 10 µM, first compound 0.00316 µM
[48] = second compound 10 µM, first compound 0.01 µM
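Also: spheroids exposed to agents for seven days before readout.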
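For viability, T/C in this document: 100% = DMSO vehicle control viability.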

## C#Cc1c(F)ccc2cc(O)cc(-c3ncc4c(N5CC6CCC(C5)N6)nc(OCC56CCCN5CC(F)C6)nc4c3F)c12 (stereo not given) + CNC(=O)c1ccc(Nc2nc(OC3CCCC3)c3c(-c4ccc5nc(C)oc5c4)c[nH]c3n2)c(OC)c1
Second compound 0.0316 µM
  IC50: > 10000 nM
Second compound 0.1 µM
  IC50: > 10000 nM
Second compound 0.316 µM
  IC50: 1350 nM
Second compound 1 µM
  IC50: < 31.6 nM
Second compound 3.16 µM
  IC50: < 31.6 nM
Second compound 10 µM
  IC50: < 31.6 nM
[1]
  viability, T/C: 103%
[2]
  viability, T/C: 94.2%
[3]
  viability, T/C: 84.8%
[4]
  viability, T/C: 100%
[5]
  viability, T/C: 98.7%
[6]
  viability, T/C: 98.8%
[7]
  viability, T/C: 71.2%
[8]
  viability, T/C: 63.2%
[9]
  viability, T/C: 51.5%
[10]
  viability, T/C: 53.5%
[11]
  viability, T/C: 61.7%
[12]
  viability, T/C: 59.3%
[13]
  viability, T/C: 55.8%
[14]
  viability, T/C: 52.9%
[15]
  viability, T/C: 50.2%
[16]
  viability, T/C: 53.4%
[17]
  viability, T/C: 47.5%
[18]
  viability, T/C: 44.1%
[19]
  viability, T/C: 46%
[20]
  viability, T/C: 45.6%
[21]
  viability, T/C: 47.4%
[22]
  viability, T/C: 50.9%
[23]
  viability, T/C: 44.9%
[24]
  viability, T/C: 52.3%
[25]
  viability, T/C: 51.6%
[26]
  viability, T/C: 43.1%
[27]
  viability, T/C: 47.5%
[28]
  viability, T/C: 39.2%
[29]
  viability, T/C: 40.3%
[30]
  viability, T/C: 28.5%
[31]
  viability, T/C: 49.4%
[32]
  viability, T/C: 42.4%
[33]
  viability, T/C: 41.9%
[34]
  viability, T/C: 41.4%
[35]
  viability, T/C: 47.5%
[36]
  viability, T/C: 29.7%

## CC(CO)NC(=O)c1cc(-c2ccc(Cl)cc2)nn(-c2cnn(C)c2)c1=O (stereo not given) + CNC(=O)c1ccc(Nc2nc(OC3CCCC3)c3c(-c4ccc5nc(C)oc5c4)c[nH]c3n2)c(OC)c1
Second compound 0.0316 µM
  IC50: > 10000 nM
Second compound 0.1 µM
  IC50: > 10000 nM
Second compound 0.316 µM
  IC50: > 10000 nM
Second compound 1 µM
  IC50: > 10000 nM
Second compound 3.16 µM
  IC50: > 10000 nM
Second compound 10 µM
  IC50: > 10000 nM
[1]
  viability, T/C: 135%
[2]
  viability, T/C: 176%
[3]
  viability, T/C: 214%
[4]
  viability, T/C: 189%
[5]
  viability, T/C: 192%
[6]
  viability, T/C: 169%
[7]
  viability, T/C: 91.4%
[8]
  viability, T/C: 87.9%
[9]
  viability, T/C: 100%
[10]
  viability, T/C: 125%
[11]
  viability, T/C: 138%
[12]
  viability, T/C: 124%
[13]
  viability, T/C: 66.2%
[14]
  viability, T/C: 82.6%
[15]
  viability, T/C: 100%
[16]
  viability, T/C: 104%
[17]
  viability, T/C: 150%
[18]
  viability, T/C: 97.4%
[19]
  viability, T/C: 64.7%
[20]
  viability, T/C: 68.7%
[21]
  viability, T/C: 79.4%
[22]
  viability, T/C: 89.6%
[23]
  viability, T/C: 84.9%
[24]
  viability, T/C: 81.6%
[25]
  viability, T/C: 70.8%
[26]
  viability, T/C: 66.2%
[27]
  viability, T/C: 81%
[28]
  viability, T/C: 77.6%
[29]
  viability, T/C: 90%
[30]
  viability, T/C: 82.4%
[31]
  viability, T/C: 70%
[32]
  viability, T/C: 59.4%
[33]
  viability, T/C: 76.1%
[34]
  viability, T/C: 93.1%
[35]
  viability, T/C: 90.8%
[36]
  viability, T/C: 79.3%

## CC(Nc1ccc2c(c1)OCCn1cc(N3C(=O)OCC3C(F)F)nc1-2)C(N)=O (stereo not given) + CNC(=O)c1ccc(Nc2nc(OC3CCCC3)c3c(-c4ccc5nc(C)oc5c4)c[nH]c3n2)c(OC)c1
Second compound 0.0316 µM
  IC50: 269 nM
Second compound 0.1 µM
  IC50: 31.7 nM
Second compound 0.316 µM
  IC50: < 31.6 nM
Second compound 1 µM
  IC50: < 31.6 nM
Second compound 3.16 µM
  IC50: < 31.6 nM
Second compound 10 µM
  IC50: < 31.6 nM
[1]
  viability, T/C: 67.3%
[2]
  viability, T/C: 61.1%
[3]
  viability, T/C: 48.2%
[4]
  viability, T/C: 34.2%
[5]
  viability, T/C: 41.8%
[6]
  viability, T/C: 26.5%
[7]
  viability, T/C: 55.7%
[8]
  viability, T/C: 38.5%
[9]
  viability, T/C: 31.9%
[10]
  viability, T/C: 40.5%
[11]
  viability, T/C: 38.2%
[12]
  viability, T/C: 17.7%
[13]
  viability, T/C: 41%
[14]
  viability, T/C: 44.8%
[15]
  viability, T/C: 36.5%
[16]
  viability, T/C: 43.1%
[17]
  viability, T/C: 32.3%
[18]
  viability, T/C: 16.9%
[19]
  viability, T/C: 39.5%
[20]
  viability, T/C: 32.6%
[21]
  viability, T/C: 29.6%
[22]
  viability, T/C: 27.5%
[23]
  viability, T/C: 23.4%
[24]
  viability, T/C: 13.5%
[25]
  viability, T/C: 37.1%
[26]
  viability, T/C: 31.7%
[27]
  viability, T/C: 26.8%
[28]
  viability, T/C: 22.2%
[29]
  viability, T/C: 20.8%
[30]
  viability, T/C: 16.3%
[31]
  viability, T/C: 34.7%
[32]
  viability, T/C: 28.2%
[33]
  viability, T/C: 26.5%
[34]
  viability, T/C: 25.9%
[35]
  viability, T/C: 23.2%
[36]
  viability, T/C: 13.2%

## CCN1CCN(Cc2ccc(Nc3ncc(F)c(-c4cc(F)c5nc(C)n(C(C)C)c5c4)n3)nc2)CC1 + CNC(=O)c1ccc(Nc2nc(OC3CCCC3)c3c(-c4ccc5nc(C)oc5c4)c[nH]c3n2)c(OC)c1
Second compound 0.0316 µM
  IC50: > 1000 nM
Second compound 0.1 µM
  IC50: > 1000 nM
Second compound 0.316 µM
  IC50: > 1000 nM
Second compound 1 µM
  IC50: < 3.16 nM
Second compound 3.16 µM
  IC50: < 3.16 nM
Second compound 10 µM
  IC50: < 3.16 nM
[37]
  viability, T/C: 81.5%
[38]
  viability, T/C: 94.4%
[1]
  viability, T/C: 76.3%
[2]
  viability, T/C: 67.7%
[3]
  viability, T/C: 98.7%
[4]
  viability, T/C: 155%
[39]
  viability, T/C: 58.5%
[40]
  viability, T/C: 64%
[7]
  viability, T/C: 56.4%
[8]
  viability, T/C: 61.7%
[9]
  viability, T/C: 108%
[10]
  viability, T/C: 137%
[41]
  viability, T/C: 57.6%
[42]
  viability, T/C: 55.6%
[13]
  viability, T/C: 51.7%
[14]
  viability, T/C: 61%
[15]
  viability, T/C: 95.3%
[16]
  viability, T/C: 135%
[43]
  viability, T/C: 45.5%
[44]
  viability, T/C: 49.2%
[19]
  viability, T/C: 50.7%
[20]
  viability, T/C: 63%
[21]
  viability, T/C: 92.6%
[22]
  viability, T/C: 122%
[45]
  viability, T/C: 48.2%
[46]
  viability, T/C: 55.7%
[25]
  viability, T/C: 57.1%
[26]
  viability, T/C: 49.6%
[27]
  viability, T/C: 82.9%
[28]
  viability, T/C: 97.9%
[47]
  viability, T/C: 46.1%
[48]
  viability, T/C: 38.8%
[31]
  viability, T/C: 46.1%
[32]
  viability, T/C: 49.3%
[33]
  viability, T/C: 76.4%
[34]
  viability, T/C: 99.2%

## COc1c(OCCCN2CCOCC2)ccc2c3n(c(=NC(=O)c4cnc(N)nc4)nc12)CCN3 + CNC(=O)c1ccc(Nc2nc(OC3CCCC3)c3c(-c4ccc5nc(C)oc5c4)c[nH]c3n2)c(OC)c1
Second compound 0.0316 µM
  IC50: 23.4 nM
Second compound 0.1 µM
  IC50: < 3.16 nM
Second compound 0.316 µM
  IC50: < 3.16 nM
Second compound 1 µM
  IC50: < 3.16 nM
Second compound 3.16 µM
  IC50: < 3.16 nM
Second compound 10 µM
  IC50: < 3.16 nM
[37]
  viability, T/C: 83.1%
[38]
  viability, T/C: 66.5%
[1]
  viability, T/C: 43.5%
[2]
  viability, T/C: 25.6%
[3]
  viability, T/C: 20.6%
[4]
  viability, T/C: 5.3%
[39]
  viability, T/C: 46.8%
[40]
  viability, T/C: 46.2%
[7]
  viability, T/C: 28.7%
[8]
  viability, T/C: 22%
[9]
  viability, T/C: 19.6%
[10]
  viability, T/C: 8.28%
[41]
  viability, T/C: 48.3%
[42]
  viability, T/C: 47.7%
[13]
  viability, T/C: 29.8%
[14]
  viability, T/C: 17.1%
[15]
  viability, T/C: 16.2%
[16]
  viability, T/C: 6.59%
[43]
  viability, T/C: 37.8%
[44]
  viability, T/C: 34.3%
[19]
  viability, T/C: 27.3%
[20]
  viability, T/C: 23.5%
[21]
  viability, T/C: 13.9%
[22]
  viability, T/C: 3.21%
[45]
  viability, T/C: 41.6%
[46]
  viability, T/C: 34.7%
[25]
  viability, T/C: 27.4%
[26]
  viability, T/C: 15.4%
[27]
  viability, T/C: 5.46%
[28]
  viability, T/C: 3.02%
[47]
  viability, T/C: 37.5%
[48]
  viability, T/C: 28.5%
[31]
  viability, T/C: 30.3%
[32]
  viability, T/C: 12.8%
[33]
  viability, T/C: 21.6%
[34]
  viability, T/C: 7.07%
